We go through 19 compounds from patent publication US8455534B2, “Estrogen receptor modulators and uses thereof” (Aragon Pharmaceuticals, Inc., priority 2010, dated 2013).

The subject of assay [1] is MCF-7 cells. Briefly: Breast Cancer Cell Viability Assay (MCF-7, CellTiter-Glo). The assay is classed as cell-based. The settings on record: 5 days' compound exposure; for IC50: Homo sapiens, MCF7, 120 h. Put shortly: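 MCF-7 cells, 320 per well in RPMI with 10% FBS and 20 mM HEPES, adhered overnight, then exposed 5 days to an eleven-point semilog dilution (final 0.3-0.000003 μM). CellTiter-Glo luminescence read; % viability = (sample − cell-free background)/(untreated − background) × 100.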

The target in assay [2] is T1, ER-α (Homo sapiens, UniProt P03372).
T1 sequence (P03372 1-595): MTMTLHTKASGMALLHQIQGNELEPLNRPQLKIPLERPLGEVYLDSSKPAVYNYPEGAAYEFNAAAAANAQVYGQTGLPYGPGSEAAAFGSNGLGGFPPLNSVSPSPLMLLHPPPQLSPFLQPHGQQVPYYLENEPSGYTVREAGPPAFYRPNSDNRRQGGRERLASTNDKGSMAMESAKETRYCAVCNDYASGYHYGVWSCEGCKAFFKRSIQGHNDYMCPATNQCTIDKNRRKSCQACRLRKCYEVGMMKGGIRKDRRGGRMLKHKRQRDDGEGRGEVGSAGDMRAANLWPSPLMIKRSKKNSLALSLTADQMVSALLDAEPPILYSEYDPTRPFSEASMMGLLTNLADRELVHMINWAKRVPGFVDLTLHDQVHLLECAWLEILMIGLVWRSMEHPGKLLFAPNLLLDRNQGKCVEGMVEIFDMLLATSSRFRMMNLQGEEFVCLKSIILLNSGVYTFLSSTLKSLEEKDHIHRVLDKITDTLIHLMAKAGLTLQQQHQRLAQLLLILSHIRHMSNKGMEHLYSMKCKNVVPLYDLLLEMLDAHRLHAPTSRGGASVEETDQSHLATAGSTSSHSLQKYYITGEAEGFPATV
Briefly: Breast Cancer Cell ER-α In Cell Western Assay (SP1). The assay is classed as cell-based. The settings on record: MCF-7 cells, SP1 antibody, 4 or 24 hr post compound addition; for Emax: MCF7, read-out: ER-α In Cell Western Assay (SP1) Max Response; for DC50: read-out: ER-α In Cell Western Assay (SP1) IC50. Put shortly: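 ER-α protein levels measured by in-cell western with SP1 antibody, ratioed to DRAQ5 DNA signal and given as percent of untreated controls. Compounds added at 0.3–0.000003 μM final (eleven semilog points) to adherent MCF-7 cells in stripped serum; exposure 4 or 24 h before fixation.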

Take `CCCC/C(=C(/c1ccc(/C=C/C(=O)O)cc1)c1ccc2[nH]ncc2c1)c1ccccc1` [Compound 59, (E)-3-(4-((E)-1-(1H-Indazol-5-yl)-2-phenylhex-1-en-1-yl)phenyl)acrylic acid]: in assay [1], the “MCF7 Viability Assay Max Response” value is “++ (++ = a single % value ≧ 40%)” and the IC50 was ≤ 100 nM. In assay [2], the Emax was ≥ 40% and the DC50 was ≤ 100 nM.
On to `O=C(O)/C=C/c1ccc(/C(=C(/CC2CCCC2)c2ccccc2)c2ccc3[nH]ncc3c2)cc1` [Compound 60, (E)-3-(4-((E)-3-Cyclopentyl-1-(1H-indazol-5-yl)-2-phenylprop-1-en-1-yl)phenyl)acrylic acid], for which, in assay [1], the “MCF7 Viability Assay Max Response” value is “++ (++ = a single % value ≧ 40%)” and the IC50 is ≤ 100 nM. Also, in assay [2], the Emax is ≥ 40% and the DC50 is ≤ 100 nM.
On to `CC/C(=C(/c1ccc(/C=C/C(=O)O)cc1)c1ccc2[nH]ncc2c1F)c1ccc(F)cc1Cl` [Compound 61, (E)-3-(4-((E)-2-(2-Chloro-4-fluorophenyl)-1-(4-fluoro-1H-indazol-5-yl)but-1-en-1-yl)phenyl)acrylic acid], for which, in assay [1], the “MCF7 Viability Assay Max Response” value is on record as “++ (++ = a single % value ≧ 40%)” and the IC50 was ≤ 100 nM. Also, in assay [2], the Emax was ≥ 40% and the DC50 is ≤ 100 nM.
On to `CC/C(=C(/c1ccc(/C=C/C(=O)O)cc1)c1cc(F)c2[nH]ncc2c1)c1ccccc1` [Compound 62, (E)-3-(4-((E)-1-(7-Fluoro-1H-indazol-5-yl)-2-phenylbut-1-en-1-yl)phenyl)acrylic acid], for which, in assay [1], the “MCF7 Viability Assay Max Response” value is on record as “++ (++ = a single % value ≧ 40%)” and the IC50 is ≤ 100 nM. For the same compound, in assay [2], the Emax is ≥ 40% and the DC50 was ≤ 100 nM.
With `CC(C)C/C(=C(/c1ccc(/C=C/C(=O)O)cc1)c1ccc2[nH]ncc2c1)c1ccc(F)cc1Cl` [Compound 63, (E)-3-(4-((E)-2-(2-Chloro-4-fluorophenyl)-1-(1H-indazol-5-yl)-4-methylpent-1-en-1-yl)phenyl)acrylic acid], in assay [1], the “MCF7 Viability Assay Max Response” value is “++ (++ = a single % value ≧ 40%)” and the IC50 was ≤ 100 nM. In addition, in assay [2], the Emax is ≥ 40% and the DC50 was ≤ 100 nM.
For the compound `O=C(O)/C=C/c1ccc(/C(=C(\c2ccccc2)C(F)F)c2ccc3[nH]ncc3c2)cc1` [Compound 64, (E)-3-(4-((Z)-3,3-Difluoro-1-(1H-indazol-5-yl)-2-phenylprop-1-en-1-yl)phenyl)acrylic acid], in assay [1], the “MCF7 Viability Assay Max Response” value is “++ (++ = a single % value ≧ 40%)” and the IC50 was ≤ 100 nM. Further, in assay [2], the Emax was ≥ 40% and the DC50 is ≤ 100 nM.
As to `CC/C(=C(/c1ccc(/C=C/C(=O)O)cc1)c1cc(F)c2[nH]ncc2c1)c1ccc(F)cc1Cl` [Compound 65, (E)-3-(4-((E)-2-(2-Chloro-4-fluorophenyl)-1-(7-fluoro-1H-indazol-5-yl)but-1-en-1-yl)phenyl)acrylic acid], in assay [1], the “MCF7 Viability Assay Max Response” value was “++ (++ = a single % value ≧ 40%)” and the IC50 is ≤ 100 nM. Also, in assay [2], the Emax was ≥ 40% and the DC50 is ≤ 100 nM.
As for `O=C(O)/C=C/c1ccc(/C(=C(/CCF)c2ccccc2)c2ccc3[nH]ncc3c2)cc1` [Compound 66, (E)-3-(4-((E)-4-Fluoro-1-(1H-indazol-5-yl)-2-phenylbut-1-en-1-yl)phenyl)acrylic acid], in assay [1], the “MCF7 Viability Assay Max Response” value is recorded as “++ (++ = a single % value ≧ 40%)” and the IC50 is ≤ 100 nM. Moreover, in assay [2], the Emax was ≥ 40% and the DC50 is ≤ 100 nM.
With `O=C(O)/C=C/c1ccc(/C(=C(/CCCl)c2ccc(F)cc2Cl)c2ccc3[nH]ncc3c2)cc1` [Compound 67, (E)-3-(4-((E)-4-Chloro-2-(2-chloro-4-fluorophenyl)-1-(1H-indazol-5-yl)but-1-en-1-yl)phenyl)acrylic acid], in assay [1], the “MCF7 Viability Assay Max Response” value is “++ (++ = a single % value ≧ 40%)” and the IC50 was ≤ 100 nM. In assay [2], the Emax was ≥ 40% and the DC50 was ≤ 100 nM.
Take `O=C(O)/C=C/c1ccc(/C(=C(\c2ccccc2)C(F)(F)F)c2ccc3[nH]ncc3c2)cc1` [Compound 68, (E)-3-(4-((Z)-3,3,3-Trifluoro-1-(1H-indazol-5-yl)-2-phenylprop-1-en-1-yl)phenyl)acrylic acid]: in assay [1], the “MCF7 Viability Assay Max Response” value was “++ (++ = a single % value ≧ 40%)” and the IC50 is ≤ 100 nM. For the same compound, in assay [2], the Emax is ≥ 40% and the DC50 was ≤ 100 nM.
Take `CC/C(=C(/c1ccc(/C=C/C(=O)O)cc1)c1ccc2[nH]ncc2c1F)c1ccc(F)cc1C` [Compound 69, (E)-3-(4-((E)-1-(4-Fluoro-1H-indazol-5-yl)-2-(4-fluoro-2-methylphenyl)but-1-en-1-yl)phenyl)acrylic acid]: in assay [1], the “MCF7 Viability Assay Max Response” value is reported as “++ (++ = a single % value ≧ 40%)” and the IC50 is ≤ 100 nM. In assay [2], the Emax was ≥ 40% and the DC50 is ≤ 100 nM.
Regarding `CC/C(=C(/c1ccc(/C=C/C(=O)O)cc1)c1ccc2[nH]ncc2c1F)c1ccc(Cl)cc1C` [Compound 70, (E)-3-(4-((E)-2-(4-Chloro-2-methylphenyl)-1-(4-fluoro-1H-indazol-5-yl)but-1-en-1-yl)phenyl)acrylic acid], in assay [1], the “MCF7 Viability Assay Max Response” value is on record as “++ (++ = a single % value ≧ 40%)” and the IC50 is ≤ 100 nM. For the same compound, in assay [2], the Emax was ≥ 40% and the DC50 was ≤ 100 nM.
Consider `Cc1cc(F)ccc1/C(=C(\c1ccc(/C=C/C(=O)O)cc1)c1ccc2[nH]ncc2c1F)C1CC1` [Compound 71, (E)-3-(4-((E)-2-Cyclopropyl-1-(4-fluoro-1H-indazol-5-yl)-2-(4-fluoro-2-methylphenyl)vinyl)phenyl)acrylic acid], for which, in assay [1], the “MCF7 Viability Assay Max Response” value was “++ (++ = a single % value ≧ 40%)” and the IC50 was ≤ 100 nM. For the same compound, in assay [2], the Emax was ≥ 40% and the DC50 is ≤ 100 nM.
In the case of `Cc1cc(Cl)ccc1/C(=C(\c1ccc(/C=C/C(=O)O)cc1)c1ccc2[nH]ncc2c1F)C1CC1` [Compound 72, (E)-3-(4-((E)-2-(4-Chloro-2-methylphenyl)-2-cyclopropyl-1-(4-fluoro-1H-indazol-5-yl)vinyl)phenyl)acrylic acid], in assay [1], the “MCF7 Viability Assay Max Response” value is reported as “++ (++ = a single % value ≧ 40%)” and the IC50 was ≤ 100 nM. Besides, in assay [2], the Emax is ≥ 40% and the DC50 was ≤ 100 nM.
As to `CC/C(=C(/c1ccc(/C=C/C(=O)O)cc1)c1ccc2[nH]ncc2c1Cl)c1ccc(F)cc1Cl` [Compound 73, (E)-3-(4-((E)-1-(4-Chloro-1H-indazol-5-yl)-2-(2-chloro-4-fluorophenyl)but-1-en-1-yl)phenyl)acrylic acid], in assay [1], the “MCF7 Viability Assay Max Response” value is given as “++ (++ = a single % value ≧ 40%)” and the IC50 was ≤ 100 nM. Also, in assay [2], the Emax is ≥ 40% and the DC50 is ≤ 100 nM.
On to `O=C(O)/C=C/c1ccc(/C(=C(\c2ccc(F)cc2Cl)C(F)F)c2ccc3[nH]ncc3c2)cc1` [Compound 74, (E)-3-(4-((Z)-2-(2-Chloro-4-fluorophenyl)-3,3-difluoro-1-(1H-indazol-5-yl)prop-1-en-1-yl)phenyl)acrylic acid], for which, in assay [1], the “MCF7 Viability Assay Max Response” value is “++ (++ = a single % value ≧ 40%)” and the IC50 was ≤ 100 nM. Also, in assay [2], the Emax was ≥ 40% and the DC50 is ≤ 100 nM.
`O=C(O)/C=C/c1ccc(/C(=C(\c2ccccc2)C2CC2)c2ccc3[nH]ncc3c2F)cc1` [Compound 75, (E)-3-(4-((E)-2-Cyclopropyl-1-(4-fluoro-1H-indazol-5-yl)-2-phenylvinyl)phenyl)acrylic acid]: in assay [1], the “MCF7 Viability Assay Max Response” value is “++ (++ = a single % value ≧ 40%)” and the IC50 is ≤ 100 nM. Moreover, in assay [2], the Emax was ≥ 40% and the DC50 is ≤ 100 nM.
`O=C(O)/C=C/c1ccc(/C(=C(/CCCl)c2ccccc2)c2ccc3[nH]ncc3c2F)cc1` [Compound 76, (E)-3-(4-((E)-4-Chloro-1-(4-fluoro-1H-indazol-5-yl)-2-phenylbut-1-en-1-yl)phenyl)acrylic acid]: in assay [1], the “MCF7 Viability Assay Max Response” value was “++ (++ = a single % value ≧ 40%)” and the IC50 is ≤ 100 nM. In assay [2], the Emax was ≥ 40% and the DC50 was ≤ 100 nM.
Regarding `O=C(O)/C=C/c1ccc(/C(=C(/CCCl)c2ccc(F)cc2Cl)c2ccc3[nH]ncc3c2F)cc1` [Compound 77, (E)-3-(4-((E)-4-Chloro-2-(2-chloro-4-fluorophenyl)-1-(4-fluoro-1H-indazol-5-yl)but-1-en-1-yl)phenyl)acrylic acid], in assay [1], the “MCF7 Viability Assay Max Response” value was “++ (++ = a single % value ≧ 40%)” and the IC50 is ≤ 100 nM. Besides, in assay [2], the Emax is ≥ 40% and the DC50 is ≤ 100 nM.

As usually defined, the IC50 is the midpoint of a concentration-inhibition curve.
